Measurements published in US5760013A, “Thymidylate analogs and the use thereof” (National Science Council, priority 1996, dated 1998).
In brackets after ≈: the same amount, converted by molar mass. Where two headings read alike, the source gives them in different places.

Legend:
HIV-1(III B) = assay: Inhibition of cytopathogenicity of HIV-1(IIIB) in MT4 cells, cell-protection assay; format: cell-based, human immunodeficiency virus type 1 (HIV-1)
MT4 cell = assay: Cellular toxicity in uninfected MT4 cells; format: cell-based; settings: Homo sapiens
Protocol: Toxicity of these compounds was evaluated by their ability to cause morphological changes in cells at different concentrations.
^a Inhibitory concentrations (IC50) represent the average of
triplicate determinations;
^b Concentration of the compound required to reduce the number of
viable uninfected cells by 50%; and […]

[1] = Determination of solubility in phosphate buffer (UV absorbance); format: physicochemical; settings: for water solubility, in words: compared with AZT
Protocol: Determination of Solubility. Each compound (70 mg) listed in Table 1 was agitated in a 25-mL volumetric flask with phosphate buffer (0.10M, 5.0 mL) for 20 h.

[2] = phosphate buffer (0.10M), agitated 20 h
[3] = Human immunodeficiency virus 1, cytopathogenicity in MT4 cells, average of triplicate determinations, read-out: IC50 HIV-1(III B)
[4] = uninfected MT4 cells, average of triplicate determinations, read-out: IC50 MT4 cell (concentration required to reduce the number of viable uninfected cells by 50%)

Cc1cn([C@H]2C[C@H](N=[N+]=[N-])[C@@H](CO)O2)c(=O)[nH]c1=O [AZT, 3'-Azido-3'-deoxythymidine, reference compound]
IC50 (HIV-1(III B); Human immunodeficiency virus 1, MT4, read-out: IC50 HIV-1(III B)): 0.02 µg/mL (≈ 0.0748 µM) | IC50 (MT4 cell; MT4, read-out: IC50 MT4 cell (concentration required to reduce the number of viable uninfected cells by 50%)): 57.3 µg/mL (≈ 214 µM)

COC(=O)[C@H](C)NP(=O)(C[C@H]1O[C@@H](n2cc(C)c(=O)[nH]c2=O)C[C@@H]1F)O[C@H]1C[C@H](n2cc(C)c(=O)[nH]c2=O)O[C@@H]1CO (stereo partly drawn) [Compound IX, (2R,4S,5R)-1-[4-Fluorotetrahydro-5-[[(3'-O-thymidinyl)(methoxy-L-alaninyl)-phosphinylidene]methyl]-2-furyl]thymine]
solubility in H2 O [1, 2]: 8790 µg/mL (≈ 14200 µM) | IC50 (HIV-1(III B); [3]): 0.34 µg/mL (≈ 0.551 µM) | IC50 (MT4 cell; [4]): 180 µg/mL (≈ 292 µM)

Cc1cn([C@H]2C[C@H](F)[C@@H](CP(=O)(O)O)O2)c(=O)[nH]c1=O [Compound V, 3'-Fluoro-3',5'-dideoxythymidine-5'-phosphonic acid]
water solubility, in words [1]: higher than that of AZT | solubility in H2 O [1, 2]: 12260 µg/mL (≈ 39800 µM) | IC50 (HIV-1(III B); [3]): 11.8 µg/mL (≈ 38.3 µM) | IC50 (MT4 cell; [4]): 98.7 µg/mL (≈ 320 µM)

Cc1cn([C@H]2C[C@H](N=[N+]=[N-])[C@@H](CP(=O)(O)O)O2)c(=O)[nH]c1=O [Compound VI, 3'-Azido-3',5'-dideoxythymidine-5'-phosphonic Acid]
solubility at 20 h ([1]; 0.10 m phosphate buffer, aqueous buffer, phosphate buffer (0.10M), agitated 20 h, read-out: solubility in H2 O): 11100 µg/mL (≈ 33600 µM) | IC50 (HIV-1(III B); [3]): 7.68 µg/mL (≈ 23.2 µM) | IC50 (MT4 cell; [4]): 115 µg/mL (≈ 346 µM)

Cc1cn([C@H]2C[C@H](OP(=O)(O)C[C@H]3O[C@@H](n4cc(C)c(=O)[nH]c4=O)C[C@@H]3F)[C@@H](CO)O2)c(=O)[nH]c1=O [Compound VII, (2R,4S,5R)-1-[4-Fluorotetrahydro-5-[(3'-O-thymidinyl-phosphinico)methyl]-2-furyl]thymine]
solubility in H2 O [1, 2]: 3980 µg/mL (≈ 7480 µM) | IC50 (HIV-1(III B); [3]): 3.04 µg/mL (≈ 5.71 µM) | IC50 (MT4 cell; [4]): 79 µg/mL (≈ 148 µM)

COC(=O)[C@H](C)NP(=O)(C[C@H]1O[C@@H](n2cc(C)c(=O)[nH]c2=O)C[C@@H]1N=[N+]=[N-])O[C@H]1C[C@H](n2cc(C)c(=O)[nH]c2=O)O[C@@H]1CO (stereo partly drawn) [Compound X, (2R,4S,5R)-1-[4-Azidotetrahydro-5-[[(3'-O-thymidinyl)(methoxy-L-alaninyl)-phosphinylidene]methyl]-2-furyl]thymine]
solubility in H2 O [1, 2]: 9130 µg/mL (≈ 14300 µM) | IC50 (HIV-1(III B); [3]): 0.61 µg/mL (≈ 0.952 µM) | IC50 (MT4 cell; [4]): 200 µg/mL (≈ 312 µM)

COC(=O)[C@@H](C)NP(=O)(C[C@H]1O[C@@H](n2cc(C)c(=O)[nH]c2=O)C[C@@H]1F)O[C@H]1C[C@H](n2cc(C)c(=O)[nH]c2=O)O[C@@H]1CO (stereo partly drawn) [Compound XI, (2R,4S,5R)-1-[4-Fluorotetrahydro-5-[[(3'-O-thymidinyl)(methoxy-D-alaninyl)-phosphinylidene]methyl]-2-furyl]thymine]
solubility in H2 O [1, 2]: 8920 µg/mL (≈ 14400 µM) | IC50 (HIV-1(III B); [3]): 0.5 µg/mL (≈ 0.81 µM) | IC50 (MT4 cell; [4]): 462 µg/mL (≈ 748 µM)

COC(=O)[C@@H](C)NP(=O)(C[C@H]1O[C@@H](n2cc(C)c(=O)[nH]c2=O)C[C@@H]1N=[N+]=[N-])O[C@H]1C[C@H](n2cc(C)c(=O)[nH]c2=O)O[C@@H]1CO (stereo partly drawn) [Compound XII, (2R,4S,5R)-1-[4-Azidotetrahydro-5-[[(3'-O-thymidinyl)(methoxy-D-alaninyl)-phosphinylidene]methyl]-2-furyl]thymine]
water solubility, in words [1]: higher than that of AZT | solubility in H2 O [1, 2]: 9200 µg/mL (≈ 14400 µM) | IC50 (HIV-1(III B); [3]): 0.76 µg/mL (≈ 1.19 µM) | IC50 (MT4 cell; [4]): 458 µg/mL (≈ 714 µM)

Cc1cn([C@H]2CC[C@@H](CP(=O)(O)O)O2)c(=O)[nH]c1=O [III, 3',5'-Dideoxythymidine-5'-phosphonic acid]
IC50 (HIV-1(III B); [3]): 23.5 µg/mL (≈ 81 µM) | IC50 (MT4 cell; [4]): 128 µg/mL (≈ 443 µM)

Cc1cn([C@H]2C[C@H](C#N)[C@@H](CP(=O)(O)O)O2)c(=O)[nH]c1=O [IV, 3'-Cyano-3',5'-dideoxythymidine-5'-phosphonic acid]
IC50 (HIV-1(III B); [3]): > 128 µg/mL | IC50 (MT4 cell; [4]): 69.9 µg/mL (≈ 222 µM)

Cc1cn([C@H]2C[C@H](N=[N+]=[N-])[C@@H](CP(=O)(O)O[C@H]3C[C@H](n4cc(C)c(=O)[nH]c4=O)O[C@@H]3CO)O2)c(=O)[nH]c1=O [VIII, (2R,4S,5R)-1-[4-Azidotetrahydro-5-[(3'-O-thymidinyl-phosphinico)methyl]-2-furyl]thymine]
solubility in H2 O [1, 2]: 3240 µg/mL (≈ 5830 µM) | IC50 (HIV-1(III B); [3]): 1.92 µg/mL (≈ 3.46 µM) | IC50 (MT4 cell; [4]): 99.5 µg/mL (≈ 179 µM)
